Reference: US20120276212A1, “COMPOSITION COMPRISING PLANT AND/OR FISH OILS AND NON-OXIDIZABLE FATTY ACID ENTITIES” (LIFE SCIENCE NUTRITION AS, priority 2004, published 2012)

Key:
[1] = degradation time in vivo of ω-oxidation blocked analogue
Text: ω-oxidation is believed to be the main pathway for degradation of the fatty acid analogues as described with a block in the X position. Experiments were thus performed where R′ was changed to block ω-oxidation, by introducing a triple bond at the methyl end of the fatty acid analogue. […] This is important for the use of the fatty acid analogues in pharmaceutical preparation, as it may potentiate the effects of the β-oxidizable fatty acid analogues by further slowing down their breakdown.

[2] = test system: mitochondrial β-oxidation in the liver; experiment: activity of mitochondrial β-oxidation in the liver of fatty acid analogues; conditions: in vivo
Text: Although all fatty acid anagoges with an odd positioning of the β-oxidation blocker X away from the carboxylic end block β-oxidation, the extent of their biological effect may be variable. This is due to the difference in biological degradation time of the various compounds. The inventors have done experiments to show the effect of moving X further from the carboxylic fatty acid end. In these experiments the activity (in nmol/min/mg/protein) of mitochondrial β-oxidation in the liver of fatty acid analogues was measured with sulphur in the 3, 5 and 7 positions relative to the carboxyl end. The activities were 0.81 for sulphur in the 3rd position, 0.61 for sulphur in the 5th position, 0.58 for sulphur in the 7th position, and 0.47 for palmitic acid, the non β-oxidation blocking control. […] However, as the decline is great for going from the 3rd to 5th position, but small going from the 5th to 7th position, it is reasonable to assume that this decline will continue to be less as one moves out the chain, and thus that it will be very far out indeed before no effect (compared to the control) is seen at all.

| SMILES | degradation time in vivo [1] | activity of mitochondrial β-oxidation in the liver [2] [nmol/min/mg/protein] |
| --- | --- | --- |
| CC#CCCCCCCCCCCCSCC [3-thia-15-heptadecyn] | substantially increased degradation time |  |
| CCCCCCCCCCCCCCCC(=O)O [palmitic acid] |  | 0.47 |
